# Source: patent publication US20060121449A1, “Method for selection of compounds which inhibit clonal cell growth and use thereof” (priority 2002, published 2006)
# Tests used:
# [1] = test system: BHK21/c13 (normal baby hamster kidney cells); assay: Clonal growth of normal BHK21/c13 cells in soft agar with growth factors (Exp 3, 6); format: cell-based; design: Clonal inhibition: unit not given here; details: for Clonal inhibition: BHK21/c13 + insulin
# Description: This experiment used BHK21/c13 cells grown in the Falcon plates with 24 wells. Each well received 120000 cells seeded in a top layer of 0.3 ml with 0.8% ultra low gelling temperature agarose (type IX, Sigma). This layer was placed upon a 0.3 ml bottom layer with 3% of the same agarose. The medium contained Eagles MEM and RPMI 1640 with 10% foetal bovine serum. The medium was supplemented with either: 15% conditioned medium (from BHK21/c13 cultures), the serum extender Mito+ or 0.1 i.u. Insulin Actrapid (Novo) or with two or all three of these in combination.
# Agar cultures were prepared in wells of 24 well Falcon tissue culture plate. […] The medium contained about equal amounts of Eagle and RPMI 1640 with 10% FBS. Insulin (Actrapid, Novo) was added in a concentration of 0.1 i.u./ml to BHK21/c13 cell cultures only.
# [2] = test system: spleen antibody producing cells against sheep red cells; assay: Jerne's test: haemolytic plaques of spleen cells after immunisation with sheep red cells (Exp 10); format: in vivo, mouse; details: for Change of number of plaques (antibody producing cells), average and high doses: 8.4 μl 20 mM and 3.5 μl 200 mM s.c.; for Condition of the animals on injection days (day 0 to day 62): all animals, s.c. 2 μl 20 mM to 3.5 μl 200 mM, day = column head; for Plaque no. in 10 mill. cells: control 4689
# Description: The same principle could be tested in animals using the classical Jerne's test. Shortly described: Mice were immunised with sheep red cells. At the same time subcutaneous injection with a clone inhibitor, e.g. 4-OH-OPB, was performed. After 5 days the spleen was squeezed and spleen-cells counted and mixed with agar medium, sheep red cells and complement. After a short time plaques appeared and were counted and percent of total number of spleen cells was calculated. […] Therefore, it is probable that it is only the reaction against the new immunogen that is affected. […] Only cells of the same specificity seemed to be the <> of clonal inhibition even if lots of other B-lymphocytes are present, but with other specificities. The only condition necessary seemed to be that affected cells should be located more than a certain distance from each other.
# In order to examine the degree of diminishing cloning in the immune system, Jerne's test in mice may be suitable (Experiment 10). Sheep erythrocytes are injected into mice. A few days later cells from the spleen of the animals are studied. In experiment 10 the smallest dose was about 3.8 μM if 4-OH-OPB was solved in the extracellular fluid of the mouse. […] But there are indications that normal cells might tolerate higher doses than malignant cells. Therefore, it is thought that effective tumour inhibiting doses of 4-OH-OPB probably will affect the clonability of antibody producing cells in the spleen under or shortly after primary immunisation moderately, about 2 logs.
# The test animals were 4 mice, white Bom/NMRI (Table 5). The drug that was tested in this experiment is 4-OH-OPB (Table 1-4). It is inhibiting Ehrlich ascites when injected together with the cells in peritoneum in a concentration of 4 μM or higher and clonal growth of BHK21/c13 and its polyoma virus transformed offspring, S100T1, in cell culture.
# A section was performed; they were weighed and a search for tumour masses was undertaken without finding any. The spleens were removed and about half of it crushed in 0.5 ml Eagles for getting extracted, free spleen cells that were seeded in soft agar on top of a solid agar layer in a Petri dish of 8.5 cm in diameter. The agar layer with spleen cells also contained sheep red cells and complement was added to obtain hemolysis.
# Animals were killed by cervical dislocation on day 62 and spleens were immediately put on cold Eagle's medium for transportation. It lasted about 5 hours before the agar dishes were ready for incubation in 5% CO2 and 37° C. However, the dishes from mouse #1 and #2 were too fluid in the top layers and developed two many plaques to be counted. Therefore, the next day, the second half of the two spleens from mouse #1 and #2 that were kept cold in the same medium were crushed in the same way and new dishes were prepared with less number of cells.
# [3] = test system: HSV2; assay: HSV2 replication and cytopathogenicity in RK13 cells (Exp 12); format: cell-based, Herpes virus 2; details: for Coverage of the bottom read after 24 hours: 1 g = 100% coverage of the bottom; for Cytopathogenicity read after 24 hours: 1d is 100% degeneration
# Description: RK13 cells and HSV2 v12225 was obtained from Dr. G. Hoddevik, National Institute of Public Health, Oslo, Virus had been stored at −75° C. It was propagated on RK13 cells.
# Then the medium, Eagles MEM with 5% FCS, was removed and replaced by new medium.
# The inoculated virus was removed by changing the medium the day before titration. […] 1, esperiment 12.
# [4] = Exp 10 animal 2, low: 2 μl 20 mM s.c.
# [5] = Exp 10 animal 3, average: 8.4 μl 20 mM s.c.
# [6] = Exp 10 animal 4, high: 3.5 μl 200 mM s.c.
smiles,measurement,setting,value
"CCCCC1(O)C(=O)N(c2ccccc2)N(c2ccc(O)cc2)C1=O (stereo not drawn) [4-OH-OPB, 4-butyl-4-hydroxy-2(p-hydroxyphenyl)-1-phenyl-3,5-pyrazolidinedione]",Clonal inhibition,"[1]; 0.3 μM added after 24 hours, read after 48 hours",0
same,Clonal inhibition,"[1]; 0.3 μM added immediately, read after 24 hours",0
same,Clonal inhibition,"[1]; 0.3 μM added immediately, read after 48 hours",0
same,Clonal inhibition,"[1]; 1 μM added after 24 hours, read after 48 hours",0
same,Clonal inhibition,"[1]; 1 μM added immediately, read after 24 hours",0
same,Clonal inhibition,"[1]; 1 μM added immediately, read after 48 hours",0
same,Clonal inhibition,"[1]; 3 μM added after 24 hours, read after 48 hours",0
same,Clonal inhibition,"[1]; 3 μM added immediately, read after 24 hours",0
same,Clonal inhibition,"[1]; 3 μM added immediately, read after 48 hours",0
same,Clonal inhibition,"[1]; 10 μM added after 24 hours, read after 48 hours",0
same,Clonal inhibition,"[1]; 10 μM added immediately, read after 24 hours",+
same,Clonal inhibition,"[1]; 10 μM added immediately, read after 48 hours",+
same,Clonal inhibition,"[1]; 30 μM added after 24 hours, read after 48 hours",0
same,Clonal inhibition,"[1]; 30 μM added immediately, read after 24 hours",+++
same,Clonal inhibition,"[1]; 30 μM added immediately, read after 48 hours",++
same,Effect when treated first after 24 hours,"[1]; Exp 6, BHK21/c13",no effect was detected
same,"Concentration with small, but significant effect on clonal inhibition","[1]; Exp 6, BHK21/c13, treated immediately on seeding, photograph after 24 hours",≥ 10 µM
same,"Change of number of plaques, smallest dose","[2]; Exp 10, 2 μl 20 mM s.c.",did not significantly change the number of plaques
same,"Change of number of plaques (antibody producing cells), average and high doses",[2]; Exp 10,did reduce the number significantly
same,"Change of number of plaques (antibody producing cells), average and high doses","[2]; Exp 10, listed as 4-OH—OPB",OPB significantly reduced the number of anti-
same,Condition of the animals on injection days (day 0 to day 62),[2]; Exp 10,all animals were clinically well
same,Condition of the animals on injection days (day 0 to day 62),"[2]; Exp 10, listed as 4-OH—OPB",all well at end
same,1. number of plaques,[2]; [4],many
same,2. number of plaques,"[2]; Exp 10 animal 2, low: 2 μl 20 mM s.c., 32.6 million cells on dish",10218
same,Plaque no. in 10 mill. cells,[2]; [4],3134
same,1. number of plaques,[2]; [5],42
same,Spleen weight,"[2]; Exp 10 animal 3, average: 8.4 μl 20 mM s.c. (est. max extracellular 19.6 μM)",150 mg
same,Plaque no. in 10 mill. cells,[2]; [5],8.4
same,1. number of plaques,[2]; [6],0-2?
same,Spleen weight,"[2]; Exp 10 animal 4, high: 3.5 μl 200 mM s.c. (est. max extracellular 67.7 μM)",136 mg
same,Plaque no. in 10 mill. cells,[2]; [6],<=0.23
same,Mouse weight after 2 months,[2]; Exp 10 mouse 2 (11.3 μg 4-OH-OPB/30 g),37.6 gram
same,Mouse weight after 2 months,[2]; Exp 10 mouse 3 (51.5 μg 4-OH-OPB/30 g),33.3 gram
same,Mouse weight after 2 months,[2]; Exp 10 mouse 4 (210.2 μg 4-OH-OPB/30 g),34 gram
same,Concentrations with inhibited production of HSV2,[3],above 0.1 μM
same,Coverage of the bottom read after 24 hours,"[3]; 2 μl/well, 0.1 μM",1 g
same,Cytopathogenicity read after 24 hours,"[3]; 2 μl/well, 0.1 μM",0.6 days
same,Coverage of the bottom read after 24 hours,"[3]; 2 μl/well, 0.3 μM",1 g
same,Cytopathogenicity read after 24 hours,"[3]; 2 μl/well, 0.3 μM",0.7 days
same,Coverage of the bottom read after 24 hours,"[3]; 2 μl/well, 1 μM",1 g
same,Cytopathogenicity read after 24 hours,"[3]; 2 μl/well, 1 μM",0.7 days
same,Coverage of the bottom read after 24 hours,"[3]; 2 μl/well, 3 μM",0.8 g
same,Cytopathogenicity read after 24 hours,"[3]; 2 μl/well, 3 μM",0.95 days
same,Coverage of the bottom read after 24 hours,"[3]; 2 μl/well, 10 μM",0.9 g
same,Cytopathogenicity read after 24 hours,"[3]; 2 μl/well, 10 μM",0.95 days
same,Coverage of the bottom read after 24 hours,"[3]; 2 μl/well, 30 μM",0.7 g
same,Cytopathogenicity read after 24 hours,"[3]; 2 μl/well, 30 μM",0.2 days
same,Coverage of the bottom read after 24 hours,"[3]; 8 μl/well, 0.1 μM",1 g
same,Cytopathogenicity read after 24 hours,"[3]; 8 μl/well, 0.1 μM",0.9 days
same,Coverage of the bottom read after 24 hours,"[3]; 8 μl/well, 0.3 μM",1 g
same,Cytopathogenicity read after 24 hours,"[3]; 8 μl/well, 0.3 μM",0.9 days
same,Coverage of the bottom read after 24 hours,"[3]; 8 μl/well, 1 μM",1 g
same,Cytopathogenicity read after 24 hours,"[3]; 8 μl/well, 1 μM",0.9 days
same,Coverage of the bottom read after 24 hours,"[3]; 8 μl/well, 3 μM",0.8 g
same,Cytopathogenicity read after 24 hours,"[3]; 8 μl/well, 3 μM",0.95 days
same,Coverage of the bottom read after 24 hours,"[3]; 8 μl/well, 10 μM",0.86 g
same,Cytopathogenicity read after 24 hours,"[3]; 8 μl/well, 10 μM",0.95 days
same,Coverage of the bottom read after 24 hours,"[3]; 8 μl/well, 30 μM",0.7 g
same,Cytopathogenicity read after 24 hours,"[3]; 8 μl/well, 30 μM",0.2 days
same,Inhibition of HSV2 titre at 3 μM,[3]; titration incubated for 3 days,about 3 log
